Measured values reported in PubChem BioAssay AID256 (DTP/NCI, 2004).
Several values for one entry are separate records, joined by “and”; a condition that tells them apart may be missing. Equal values may be shown once. Toxic doses and inconclusive results are not listed. Rule for the calls: active = survival T/C of 150% or more; inactive = T/C below 125% in these data.

Tested on: CD2F1 mice, L1210 leukemia ip, survival T/C
Experiment: NCI In Vivo Anticancer Drug Screen. Data for tumor model L1210 Leukemia (intraperitoneal) in CD2F1 (CDF1) mice
Details: higher = longer survival
In short: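 Mice carrying a transplanted tumor received test compound or vehicle alone. The value is the measurement in the treated group divided by that in the vehicle-treated control group.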

[1] = endpoint: mean survival time, dose: 12.5 mg/kg/injection, schedule: Q01DX009 (ip), vehicle: saline with Tween-80
[2] = endpoint: mean survival time, dose: 25.0 mg/kg/injection, schedule: Q01DX009 (ip), vehicle: saline with Tween-80
[3] = endpoint: mean survival time, dose: 50.0 mg/kg/injection, schedule: Q01DX009 (ip), vehicle: saline with Tween-80
[4] = endpoint: mean survival time, dose: 100.0 mg/kg/injection, schedule: Q04DX003 (ip), vehicle: saline with Tween-80
[5] = endpoint: mean survival time, dose: 200.0 mg/kg/injection, schedule: Q04DX003 (ip), vehicle: saline with Tween-80
[6] = endpoint: mean survival time, dose: 400.0 mg/kg/injection, schedule: Q04DX003 (ip), vehicle: saline with Tween-80
[7] = endpoint: mean survival time, dose: 100.0 mg/kg/injection, schedule: Q01DX001 (ip), vehicle: saline with Tween-80
[8] = endpoint: mean survival time, dose: 100.0 mg/kg/injection, schedule: Q01DX009 (ip), vehicle: saline with Tween-80
[9] = endpoint: mean survival time, dose: 200.0 mg/kg/injection, schedule: Q01DX009 (ip), vehicle: saline with Tween-80
[10] = endpoint: mean survival time, dose: 400.0 mg/kg/injection, schedule: Q01DX009 (ip), vehicle: saline with Tween-80
[11] = endpoint: mean survival time, dose: 12.5 mg/kg/injection, schedule: Q01DX005 (ip), vehicle: water
[12] = endpoint: mean survival time, dose: 25.0 mg/kg/injection, schedule: Q01DX005 (ip), vehicle: water
[13] = endpoint: mean survival time, dose: 50.0 mg/kg/injection, schedule: Q01DX005 (ip), vehicle: water

Measured: T/C

Cc1cc(N2CCN(C)CC2)n2nc(-c3ccc(Cl)cc3)nc2n1
inactive: endpoint: mean survival time, dose: 50.0 mg/kg/injection, schedule: Q01DX001 (ip), vehicle: Klucel (hydroxypropylcellulose) (HPC) 120 % of control | endpoint: mean survival time, dose: 50.0 mg/kg/injection, schedule: Q01DX009 (ip), vehicle: Klucel (hydroxypropylcellulose) (HPC) 100 % of control | endpoint: mean survival time, dose: 100.0 mg/kg/injection, schedule: Q01DX001 (ip), vehicle: Klucel (hydroxypropylcellulose) (HPC) 95 % of control | endpoint: mean survival time, dose: 100.0 mg/kg/injection, schedule: Q01DX009 (ip), vehicle: Klucel (hydroxypropylcellulose) (HPC) 99 % of control | endpoint: mean survival time, dose: 200.0 mg/kg/injection, schedule: Q01DX001 (ip), vehicle: Klucel (hydroxypropylcellulose) (HPC) 93 % of control | endpoint: mean survival time, dose: 200.0 mg/kg/injection, schedule: Q01DX009 (ip), vehicle: Klucel (hydroxypropylcellulose) (HPC) 97 % of control

CN1CCCN(C)C1c1ccccc1O
inactive: [1] 105 % of control | [2] 102 % of control | [3] 107 % of control

CN(C)CCC[n+]1cc2c3ccccc3c(N)cc2c2ccccc21
inactive: endpoint: mean survival time, dose: 3.13 mg/kg/injection, schedule: Q04DX003 (ip), vehicle: water 103 % of control | endpoint: mean survival time, dose: 6.25 mg/kg/injection, schedule: Q04DX003 (ip), vehicle: water 106 % of control | endpoint: mean survival time, dose: 12.5 mg/kg/injection, schedule: Q04DX003 (ip), vehicle: water 103 % of control | endpoint: mean survival time, dose: 25.0 mg/kg/injection, schedule: Q04DX003 (ip), vehicle: water 109 % of control | endpoint: mean survival time, dose: 50.0 mg/kg/injection, schedule: Q04DX003 (ip), vehicle: water 109 % of control

CCCC(=O)NNC(=O)c1ccccn1
inactive: endpoint: mean survival time, dose: 100.0 mg/kg/injection, schedule: Q01DX009 (ip), vehicle: saline sonified 109 % of control | [4] 101 % of control | [5] 104 % of control | [6] 106 % of control

O=C(O)c1ccc(N/N=C/C(F)(F)F)cc1
inactive: endpoint: mean survival time, dose: 1.87 mg/kg/injection, schedule: Q01DX009 (ip), vehicle: saline 107 % of control | endpoint: mean survival time, dose: 3.75 mg/kg/injection, schedule: Q01DX009 (ip), vehicle: saline 105 % of control | endpoint: mean survival time, dose: 6.25 mg/kg/injection, schedule: Q01DX001 (ip), vehicle: saline with Tween-80 97 % of control | endpoint: mean survival time, dose: 7.5 mg/kg/injection, schedule: Q01DX009 (ip), vehicle: saline 105 % of control | endpoint: mean survival time, dose: 12.5 mg/kg/injection, schedule: Q01DX001 (ip), vehicle: saline with Tween-80 94 % of control | [1] 107 % of control | endpoint: mean survival time, dose: 15.0 mg/kg/injection, schedule: Q01DX009 (ip), vehicle: saline 109 % of control | endpoint: mean survival time, dose: 25.0 mg/kg/injection, schedule: Q01DX001 (ip), vehicle: saline with Tween-80 94 % of control | [2] 109 % of control | endpoint: mean survival time, dose: 50.0 mg/kg/injection, schedule: Q01DX001 (ip), vehicle: saline with Tween-80 101 % of control | [3] 101 % of control | [7] 95 % of control | endpoint: mean survival time, dose: 200.0 mg/kg/injection, schedule: Q01DX001 (ip), vehicle: saline with Tween-80 89 % of control | endpoint: mean survival time, dose: 400.0 mg/kg/injection, schedule: Q01DX001 (ip), vehicle: saline with Tween-80 118 % of control

O=C1C(Br)=CC(Br)(Br)C=C1Br
inactive: [8] 88 % of control | [9] 91 % of control | [10] 86 % of control

O=NN(CCCl)C(=O)Nc1cc2c3ccccc3ccc2c2ccccc12
inactive: endpoint: mean survival time, dose: 177.0 mg/kg/injection, schedule: Q01DX009 (ip), vehicle: saline with Tween-80 102 % of control | endpoint: mean survival time, dose: 265.0 mg/kg/injection, schedule: Q01DX009 (ip), vehicle: saline with Tween-80 98 % of control | [10] 102 % of control | endpoint: mean survival time, dose: 600.0 mg/kg/injection, schedule: Q01DX009 (ip), vehicle: saline with Tween-80 89 % of control

CC(=O)c1ccc(N=NC2C(=O)N(c3ccccc3)N=C2C)cc1 (stereo not drawn)
inactive: [9] 87 % of control | [10] 95 % of control

CN(C)N=Nc1ccc(Cl)cc1C(N)=O
inactive: endpoint: mean survival time, dose: 18.8 mg/kg/injection, schedule: Q01DX009 (ip), vehicle: Klucel (hydroxypropylcellulose) (HPC) 93 % of control and 98 % of control | endpoint: mean survival time, dose: 37.5 mg/kg/injection, schedule: Q01DX009 (ip), vehicle: Klucel (hydroxypropylcellulose) (HPC) 91 % of control and 95 % of control | endpoint: mean survival time, dose: 75.0 mg/kg/injection, schedule: Q01DX009 (ip), vehicle: Klucel (hydroxypropylcellulose) (HPC) 91 % of control and 104 % of control | endpoint: mean survival time, dose: 150.0 mg/kg/injection, schedule: Q01DX009 (ip), vehicle: Klucel (hydroxypropylcellulose) (HPC) 114 % of control

CCOc1ccc(NC(=O)C(C)O)cc1 (stereo not drawn)
inactive: [8] 95 % of control | [4] 103 % of control | [9] 101 % of control | [5] 97 % of control | [10] 107 % of control | [6] 97 % of control

CCCCSP(=O)(CCl)SCCCC
inactive: endpoint: mean survival time, dose: 25.0 mg/kg/injection, schedule: Q04DX002 (ip), vehicle: saline with Tween-80 93 % of control | endpoint: mean survival time, dose: 50.0 mg/kg/injection, schedule: Q04DX002 (ip), vehicle: saline with Tween-80 97 % of control | endpoint: mean survival time, dose: 100.0 mg/kg/injection, schedule: Q04DX002 (ip), vehicle: saline with Tween-80 93 % of control

Cc1cn(C2CC(O)C(CO)O2)c(=O)nc1NCC12CC3CC(CC(C3)C1)C2 (stereo not drawn)
inactive: endpoint: median survival time, dose: 12.5 mg/kg/injection, schedule: Q01DX005 (ip), vehicle: distilled water + Tween-80 105 % of control | endpoint: median survival time, dose: 25.0 mg/kg/injection, schedule: Q01DX005 (ip), vehicle: distilled water + Tween-80 104 % of control | endpoint: median survival time, dose: 50.0 mg/kg/injection, schedule: Q01DX005 (ip), vehicle: distilled water + Tween-80 102 % of control | endpoint: median survival time, dose: 100.0 mg/kg/injection, schedule: Q01DX005 (ip), vehicle: distilled water + Tween-80 94 % of control

O=C(O)Cc1ccncc1
inactive: [4] 97 % of control | [5] 100 % of control | [6] 97 % of control

CCCc1cc(C(C)=O)c[n+](C2OC(COC(C)=O)C(OC(C)=O)C(OC(C)=O)C2OC(C)=O)c1 (stereo not drawn)
inactive: endpoint: mean survival time, dose: 3.13 mg/kg/injection, schedule: Q01DX005 (ip), vehicle: water 107 % of control | endpoint: mean survival time, dose: 6.25 mg/kg/injection, schedule: Q01DX005 (ip), vehicle: water 100 % of control | [11] 104 % of control | [12] 109 % of control | [13] 95 % of control

CC(C)=CCOC1=CC(=O)C(=O)c2ccccc21
inactive: [7] 103 % of control

Cn1c(=O)c2c(nc(N3CCOCC3)n2CCCNCC(O)c2cc(O)cc(O)c2)n(C)c1=O (stereo not drawn)
inactive: [11] 100 % of control | [12] 96 % of control | [13] 94 % of control | endpoint: mean survival time, dose: 100.0 mg/kg/injection, schedule: Q01DX005 (ip), vehicle: water 97 % of control | endpoint: mean survival time, dose: 200.0 mg/kg/injection, schedule: Q01DX005 (ip), vehicle: water 92 % of control

Cc1ccc(C(=O)Nc2ccccc2I)cc1
inactive: [8] 97 % of control | [9] 101 % of control | [10] 97 % of control

O=C1[C@@H]2C3C=CC([C@H]4C(=O)N(CO)C(=O)[C@@H]34)[C@@H]2C(=O)N1CO
inactive: endpoint: median survival time, dose: 25.0 mg/kg/injection, schedule: Q01DX005 (ip), vehicle: Klucel (hydroxypropylcellulose) (HPC) 107 % of control | endpoint: median survival time, dose: 50.0 mg/kg/injection, schedule: Q01DX005 (ip), vehicle: Klucel (hydroxypropylcellulose) (HPC) 109 % of control | endpoint: median survival time, dose: 200.0 mg/kg/injection, schedule: Q01DX005 (ip), vehicle: Klucel (hydroxypropylcellulose) (HPC) 101 % of control
